Key:
human PPARγ LBD = human PPARγ LBD (Homo sapiens, UniProt P37231); details: FIG. 1
Chain of human PPARγ LBD (P37231 238-503 limits assumed): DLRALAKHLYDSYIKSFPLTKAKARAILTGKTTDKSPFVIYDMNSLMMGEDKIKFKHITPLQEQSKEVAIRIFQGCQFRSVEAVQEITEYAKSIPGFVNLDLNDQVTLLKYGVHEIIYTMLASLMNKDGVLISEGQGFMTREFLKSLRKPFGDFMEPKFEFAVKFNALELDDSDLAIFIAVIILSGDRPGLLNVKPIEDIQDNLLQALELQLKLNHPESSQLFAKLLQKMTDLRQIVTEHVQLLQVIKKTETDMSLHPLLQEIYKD

What does the source list for `O=C(Nc1ccc(OCc2cccs2)cc1C(=O)[O-])c1ccc(Cl)cc1Cl.[Li+]` [Example 1, Lithium 2-[(2,4-dichlorobenzoyl)amino]-5-(2-thienylmethoxy)benzoate]?
location of the compound in the structure of the human PPARγ LBD complex (human PPARγ LBD): located in the ligand binding pocket of human PPARγ; melting point: 165 to 168 °C

— patent publication US20030073862A1, “Compounds” (priority 2001, published 2003)
